Test results from PMC12259270, “Sensory neuron–expressed FGF13 controls nociceptive signaling in diabetic neuropathy models” (The Journal of Clinical Investigation, 2025).
Values joined by “and” are separate entries in the source; they are usually repeats but may differ in a detail not shown here. Equal entries are not always repeated. Residues, ends and D or L forms follow the SMILES beside them. *: point of attachment. Cbz = O=C(OCc1ccccc1)*; OtBu = CC(C)(C)O*

Key:
C57BL/6 mice [1] = test: Capsaicin-induced mechanical hypersensitivity (von Frey); type: in vivo, mouse; parameters: LVF Mean / HVF Mean / MECHANICAL LVF / MECHANICAL HVF: unit not given here; settings: Cap + Bup 7 mg/mL
Text: (§1) FGF13 is a neuronal gene ubiquitously transcribed in DRG neuronal subtypes ([43]–[46]). To investigate neuronal subtype enrichment of the FGF13 transcript, we examined a gene panel including FGF13, SCN9A, and several marker genes in mouse single-cell transcriptomic data (Supplemental Figure 10) ([43]–[46]). […] Critically, putative silent nociceptors marked by somatostatin (SST), and the nicotinic cholinergic receptor α-3 subunit (CHRNA3) contribute to development of inflammatory mechanical hyperalgesia ([47]). […] We next determined if PW164 modulation of the FGF13/Nav1.7 complex could suppress nociceptive behaviors in WT mice. We tested whether intraplantar (i.pl.) injection (5 μL) of PW164 altered hind paw withdrawal in response to low or high intensity von Frey filament (LVF or HVF, respectively) mechanical stimulation (Figure 3A). […] Next, we evaluated PW164’s effect on mechanical and thermal hindpaw sensitivity in capsaicin-induced nociceptive hypersensitivity models. […] Next, we performed in vivo target validation in WT mice that received an intrathecal (i.t.) injection in L5 of AAV2-shFGF13 (6 μL, viral titers 1 × 10^12 vector genomes (vg)/mL); a control group received an equal number of AAV2-shCTRL particles (Figure 3C).
(§2) Experiments were performed on 6- to 12-week-old male C57BL/6 mice (The Jackson Laboratory, Bar Harbor, ME) housed in the AAALAC-accredited facility at the University of Texas Medical Branch. Mice were group-housed with up to 5 mice per cage on a 12-to-12-hour light–dark cycle and had access to water and food ad libitum. All protocols were approved by the Institutional Animal Care and Use Committee (IACUC) at the University of Texas Medical Branch and in accordance with the National Institutes of Health (NIH) guidelines.
(§3) PW164 and ZL192 were dissolved in DMSO and saline in a ratio of 1:10. 0.1% capsaicin (10% ethanol, 10% Tween-20 in saline; Sigma-Aldrich). All the compounds were injected at the center of the hind paw. The control group received a DMSO-saline mixture. […]
Bupivacaine was prepared from a 1:2 dilution with sterile 0.9% saline and locally injected in the center of the paw at 7 mg/ml.
(§4) AAV2 viral particles packaged by the University of North Carolina Gene Therapy Core Facility (viral titer ranging […]
(§5) Before intrathecal injections in the lumbar region, mice were maintained in an anesthetizing box with 2% isoflurane to induce unconsciousness. Six microliters of viral vector were gently injected into the CSF through a 30-gauge needle with a Hamilton syringe in the lumbar area between vertebrae L4 and L5 by gently gripping the iliac crest of the mouse and inserting the needle with an angle of 45°. The correct procedure was confirmed by the mouse’s tail reflexiv e flick.
(§6) Assessment of mechanical sensitivity
Mechanical sensitivity was assessed using von Frey filaments (VFF 0.1g and 1.0 g force) in mice that were either naïve or received intraplantar (i.p.) injection of capsaicin. VFFs were applied at the injection site (capsaicin or […]

C57BL/6 mice [2] = test: Mechanical sensitivity (von Frey, LVF/HVF) after intraplantar injection, mice without capsaicin; type: in vivo, mouse; parameters: key to LVF Mean / HVF Mean: % withdrawals from 10 consecutive von Frey stimulations; settings: Bup 7 mg/mL, without capsaicin
Description: as §2, §3, §6
Mechanical sensitivity was assessed using von Frey filaments (VFF 0.1g and 1.0 g force) in mice that were either naïve or received intraplantar (i.p.) injection of capsaicin. VFFs were applied at the injection site (capsaicin or drug unilateral intraderma l injection at the center of the hind paw using a 30 -G needle). VFF of 1.0 g force, which evokes a 40–60% withdrawal response in the naïve condition, was used to detect hyperalgesia, and VFF of 0.1 g […]
mechanical sensitivity was expressed as % withdrawals from 10 consecutive stimulations. […]

[3] = test system: FGF13 and Nav1.7 colocalization in hIPSC-derived sensory neurons; test: Immunocytochemistry, FGF13 and Nav1.7 colocalization in RealDRG; type: cell-based, human; settings: Capsaicin, N 39
Description: After treatment, coverslips containing hIPSC-derived sensory neurons were fixed with 4% PFA/4% sucrose for 15 minutes, permeabilized for 5 minutes using 0.1% Triton X-100 in PBS and blocked with 10% Normal Goat Serum (ThermoFisher Scientific) for 30 minutes. Cells were stained using primary antibodies ms IgG1 Nav1.7 […]
Tubulin (Abcam, catalog # ab18207; 1:2000) overnight at 4∘C in 3% BSA. Isotype specific secondary antibodies ms IgG1 Alexa 568 (Life Technologies, catalog # A-21124; 1:200), ms IgG2a Alexa 647 (Life Technologies, […]
applied for 2 hours. After washing, cell membranes were labeled using CellBrite Cytoplasmic Membrane Dye (Biotium) according to manufacturer directions. After final washing, coverslips were mounted using ProLong Gold Antifade Mountant (ThermoFisher). hIPSC-derived sensory neurons were fixed at day 14 in buffered formalin (10 wt%/vol%, Fisher Scientific 23-305-510) for 10 minutes, permeabilized in DPBS plus Triton X-100 (0.2 vol%/vol%, MilliporeSigma, T8787-100ML), blocked in DPBS plus bovine serum albumin (1 wt%/vol%, MilliporeSigma A3059-100G) and Tween-20 (0.1 vol% MilliporeSigma P1379) for 2 hours, and incubated with primary antibodies overnight. Cultures were washed twice with blocking solution and incubated 1 hour with secondary antibodies. 4′,6-diamidino-2-phenylindole dilactate (DAPI, Thermo Fisher D3571) was added for 10 minutes before washing three times in DPBS. Antibodies used include: TUJ1 (1:250, MilliporeSigma MAB1637), […]
and Alexa Fluor 555 Donkey anti-Rabbit (1:500, Thermo Fisher Scientific A-31572). Negative controls included

C57BL/6 mice [4] = test: Capsaicin-induced thermal hypersensitivity (Hargreaves); type: in vivo, mouse; settings: Figure 3 B lower block (Vehicle vs PW 164), individual animals 1-20
Text: as §1, §2, §3, §4
as §5, with “flick. […]” for “flick.”

[5] = biological target: T1, FGF13 (protein used in surface plasmon resonance) (UniProt Q92913-2 1-192); test: SPR; cell-free; FGF13 with Nav1.7 CTD, no compound; settings: both partners purified
T1 construct: Fibroblast growth factor 13; also called fibroblast growth factor 13
T1 sequence (looked up): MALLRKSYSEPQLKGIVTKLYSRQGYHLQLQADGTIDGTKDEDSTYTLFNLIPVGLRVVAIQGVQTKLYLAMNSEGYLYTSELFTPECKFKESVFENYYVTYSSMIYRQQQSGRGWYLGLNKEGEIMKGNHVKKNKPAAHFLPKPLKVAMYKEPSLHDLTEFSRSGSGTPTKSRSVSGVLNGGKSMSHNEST

CCCCN1CCCCC1C(=O)Nc1c(C)cccc1C (racemic) [Bup]
HVF Mean (C57BL/6 mice [1]; Time (h) 0): 52 | LVF Mean (C57BL/6 mice [1]; Time (h) 0): 0 | HVF Mean (C57BL/6 mice [1]; Time (h) 0.5): 100 | LVF Mean (C57BL/6 mice [1]; Time (h) 0.5): 66 | HVF Mean (C57BL/6 mice [1]; Time (h) 0.75): 6 | LVF Mean (C57BL/6 mice [1]; Time (h) 0.75): 0 | HVF Mean (C57BL/6 mice [1]; Time (h) 1): 58 | LVF Mean (C57BL/6 mice [1]; Time (h) 1): 0 | HVF Mean (C57BL/6 mice [1]; Time (h) 1.5): 98 | LVF Mean (C57BL/6 mice [1]; Time (h) 1.5): 22 | HVF Mean (C57BL/6 mice [1]; Time (h) 2): 100 | LVF Mean (C57BL/6 mice [1]; Time (h) 2): 52 | HVF Mean (C57BL/6 mice [2]; Time (h) 0): 52 | HVF Mean (C57BL/6 mice [2]; Time (h) 0.5): 8 | HVF Mean (C57BL/6 mice [2]; Time (h) 1): 58 | HVF Mean (C57BL/6 mice [2]; Time (h) 1.5): 54 | HVF Mean (C57BL/6 mice [2]; Time (h) 2): 54

COc1cc(CNC(=O)CCCC/C=C/C(C)C)ccc1O [Capsaicin]
Figure S6C, Mean ([3]; Distance 7.1166 microns): 236.646 | Figure S6C, Mean ([3]; Distance 7.2484 microns): 412.139 | Figure S6C, Mean ([3]; Distance 7.3801 microns): 777.284 | Figure S6C, Mean ([3]; Distance 7.5119 microns): 1294.71 | Figure S6C, Mean ([3]; Distance 7.6437 microns): 1747.86 | Figure S6C, Mean ([3]; Distance 7.7755 microns): 1996.82 | Figure S6C, Mean ([3]; Distance 7.9073 microns): 2041.85 | Figure S6C, Mean ([3]; Distance 8.0391 microns): 2010.31 | Figure S6C, Mean ([3]; Distance 8.1709 microns): 1934.86 | Figure S6C, Mean ([3]; Distance 8.3027 microns): 1848.17 | Figure S6C, Mean ([3]; Distance 8.4344 microns): 1793.9 | Figure S6C, Mean ([3]; Distance 8.5662 microns): 1740.61 | Figure S6C, Mean ([3]; Distance 8.698 microns): 1651.29 | Figure S6C, Mean ([3]; Distance 8.8298 microns): 1564.27 | Figure S6C, Mean ([3]; Distance 8.9616 microns): 1524.73 | Figure S6C, Mean ([3]; Distance 9.0934 microns): 1474.75

COC(=O)[C@@H](NC(=O)[C@H](CCC(=O)OC(C)(C)C)NC(=O)[C@H](CC(C)C)NC(=O)[C@@H]1CCCN1C(=O)OCc1ccccc1)C(C)C [PW 164] (Cbz-PLE(OtBu)V-OMe)
Paw withdrawal latency (C57BL/6 mice [4]; Time (h) 0.5): 6.8 s and 5.5 s (2×) and 2.93 s and 6.4 s and 5.33 s and 6.3 s and 4.8 s and 4.23 s and 4.87 s and 3.47 s and 5.6 s and 4.1 s and 4.4 s and 2.87 s and 8.3 s and 5.93 s and 5 s and 4.2 s and 6.1 s | Paw withdrawal latency (C57BL/6 mice [4]; Time (h) 1): 11.43 s and 10.43 s and 13.57 s and 12.1 s and 12.5 s and 12.33 s and 11.6 s and 11.33 s and 13.2 s and 15.4 s and 16 s and 12.63 s and 16.3 s and 11.83 s and 17.37 s and 20 s and 12.8 s and 12.17 s and 18.37 s and 16.47 s | Paw withdrawal latency (C57BL/6 mice [4]; Time (h) 1.5): 12.6 s and 12.77 s and 10.5 s and 11.3 s and 13.4 s and 7.9 s and 8 s and 9.27 s and 11.73 s and 9.97 s and 16.43 s and 14.37 s and 15.37 s and 12.23 s and 13.13 s and 18.63 s and 15.2 s and 17.17 s and 10.23 s and 9.23 s | Paw withdrawal latency (C57BL/6 mice [4]; Time (h) 2.5): 12.63 s and 12.73 s and 10.73 s and 10.97 s and 13.83 s and 8.87 s and 8.63 s and 9.6 s and 15.4 s and 19.5667 s and 15.7667 s and 13.6 s and 14.9333 s (2×) and 14.7333 s and 11.4667 s and 11.1333 s and 10.5667 s and 15.1 s and 13.2 s | Paw withdrawal latency (C57BL/6 mice [4]; Time (h) BN (baseline)): 12.77 s and 12 s and 12.53 s and 10.8 s and 11.1 s and 12.43 s and 10.77 s (2×) and 12.33 s (2×) and 12.47 s (2×) and 14.53 s and 12.9 s and 11.27 s (2×) and 13.5 s and 11.07 s and 12.6 s and 10.67 s

B1: Nav1.7 CTD (fragment used in surface plasmon resonance) (domain or fragment)
chain: QEDVSATVIQRAYRRYRLRQNVK
modifications: synthetic peptide from supplementary SPR methods (stated as residues 1876-1899, 23 aa); used unconjugated as analyte over immobilized FGF13, and biotinylated (biotin position not stated) when …
Kd [5]: 75 ± 3 nM
